From patent US20240199648A1, “MAP4K1 INHIBITORS” (Blueprint Medicines Corporation, priority 2021, published 2024)
Where two headings read alike, the source gives them in different places.

Key:
[1] = target: T1, MAP4K1 (HPK1) (Homo sapiens, UniProt Q92918); assay: Inhibition of MAP4K1 biochemical enzymatic activity (EZReader 2 electrophoretic mobility shift assay); conditions: HPK1 (Invitrogen), S6K2tide 1.5 μM, 120 min; ATP 26 μM or 1000 μM (not stated which)
T1 construct: purchased Invitrogen
Excerpt: MAP4K1 (HPK1) and relevant off-target enzymatic activity was monitored using the Perkin Elmer electrophoretic mobility shift technology platform—the EZReader 2. […] Within the linear, steady-state phase of the kinase enzymatic reaction, the mixed pool of phosphorylated (product) and non-phosphorylated (substrate) peptides was passed through the microfluidic system of the PerkinElmer EZ Reader 2, under an applied electric potential difference. The presence of the phosphate group on the product peptide provided a difference in mass and charge between that of the substrate peptide, resulting in a separation of the substrate and product pools in the sample (Perrin et al. 2010). As the product and substrate peptide mixture passes the lasers within the instrument, these pools are detected (λex=488 nm, λem=568 nm) and resolved as separate peaks. The ratio between these peaks reflects the activity of the compound at that concentration, in that well, under those conditions.
Inhibitors were dissolved in 100% DMSO at a stock concentration of 10 mM. A 100×, 10-point, 4-fold serial dilution of each inhibitor was created in 100% DMSO either manually or on a Hamilton STAR liquid handler, starting at a relevant concentration, usually 1 mM. A volume of 0.130 μL of each concentration was transferred to the relevant wells of a 384-well plate (Greiner 781 201) in diplicate using a TTPLabtech Mosquito nano-litre dispenser. Using a Multidrop Combi, the remaining constituents of the kinase reaction were added to the 130 nL of dosed compound as follows (see table below for final reaction details):
Enzyme activity assays at the ^APPKM for ATP or 1 mM ATP: In each well of a 384-well plate, 0.1-15 nM of untreated enzyme was incubated in a total of 13 μL of buffer (100 mM HEPES pH 7.5, 0.015% Brij 35, 10 mM MgCl2, 1 mM DTT) with 1.5 μM fluorescent peptid and 20-1000 μM ATP, at 25° C., for 60-180 minutes in the presence or absence of a dosed concentration series of compound (1% DMSO final concentration). The kinase reactions were stopped by the addition of 70 μl of Stop buffer (100 mM HEPES pH 7.5, 0.015% Brij 35, 35 mM EDTA and 0.2% of Coating Reagent 3 (Caliper Lifesciences)). The plates were read on a Caliper EZReader 2 as described above.

[2] = system: Primary T Cell; assay: T cell enhancement of cytokines: IL2 measurement (HTRF) in expanded CD3+ T cells stimulated with anti-CD3/anti-CD28; format: cell-based, human; conditions: plate-bound anti-CD3 and soluble anti-CD28, 24 h, read-out: IL-2 Primary T Cell EC50
Protocol: T cells are isolated from whole blood of healthy donors by immunomagnetic negative selection following manufacture's protocol (StemCell Technologies, human T cell isolation kit). Purity of isolated cells is assessed by flow cytometry and yields 95-98% CD3^+ T cells. For expansion of T cells, 1×10^6 cells/well are plated in serum free cell expansion media (ThermoFisher) containing 30U of recombinant human IL2 (R&D) and stimulated with 25 ul of CD3/CD28 beads (Invitrogen) in 24 well plates for 3-4 days. T cells are then expanded in 175 cm flasks and maintained at a cell density of 1 to 2.5×10^6 cells/ml days by addition of ⅔ of fresh media every 2-3 days. After 10-14 days, cells are frozen in BamBanker freezing media (Thermo) and stored in liquid nitrogen.
For IL2 measurement, expanded CD3+ T cells are dispensed at 100K cells/well (cultured in X-VIVO 10 Serum-free media) and are stimulated with plate-bound anti-CD3 and soluble anti-CD28 in the presence of vehicle or compound of the disclosure at various concentrations for 24 h. As outlined in the manufacturer's protocol (Cisbio), 16 μL of conditioned media is transferred to a white 384-well low volume plate. Following a 24 h incubation with the anti-IL2 antibodies, the homogenous time resolved fluorescence (HTRF) is measured.

T1 sequence (Q92918 whole entry): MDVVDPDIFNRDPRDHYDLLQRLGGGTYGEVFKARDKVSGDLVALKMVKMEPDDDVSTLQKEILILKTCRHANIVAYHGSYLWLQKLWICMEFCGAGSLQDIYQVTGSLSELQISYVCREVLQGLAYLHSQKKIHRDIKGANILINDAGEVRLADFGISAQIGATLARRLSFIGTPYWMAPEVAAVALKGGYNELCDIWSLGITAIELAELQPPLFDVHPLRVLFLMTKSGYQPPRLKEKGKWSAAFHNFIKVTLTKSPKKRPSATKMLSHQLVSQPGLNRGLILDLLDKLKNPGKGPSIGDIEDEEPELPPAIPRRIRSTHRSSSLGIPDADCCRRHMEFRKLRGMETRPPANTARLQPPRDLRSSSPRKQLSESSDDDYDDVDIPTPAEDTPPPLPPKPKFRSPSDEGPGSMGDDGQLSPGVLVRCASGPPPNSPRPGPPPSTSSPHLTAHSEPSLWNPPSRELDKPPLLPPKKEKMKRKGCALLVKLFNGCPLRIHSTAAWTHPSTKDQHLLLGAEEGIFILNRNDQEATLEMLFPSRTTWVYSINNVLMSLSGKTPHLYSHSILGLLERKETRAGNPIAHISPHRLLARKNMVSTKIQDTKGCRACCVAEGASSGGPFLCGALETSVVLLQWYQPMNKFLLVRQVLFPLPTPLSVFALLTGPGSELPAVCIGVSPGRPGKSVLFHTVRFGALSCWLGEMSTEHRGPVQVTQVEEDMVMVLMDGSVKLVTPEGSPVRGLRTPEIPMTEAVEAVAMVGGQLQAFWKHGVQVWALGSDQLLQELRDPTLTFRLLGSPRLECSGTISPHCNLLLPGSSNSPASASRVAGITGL

Row | Compound | IC50 [1] [nM] | EC50 ([2]; Homo sapiens, T-cell, 24 h) [nM] | EC50 [2] [nM]
1 | CC[C@@H](N)c1cnc(OC2CN(C(=O)[C@@H]3C[C@@H]3F)C2)c2cnc(Nc3ccc4c(n3)[C@@H](C)C(C)(C)OC4=O)cc12 (single isomer, unassigned) [Compound 11, (R)-2-((5-((R)-1-aminopropyl)-8-((1-((1S,2S)-2-fluorocyclopropane-1-carbonyl)azetidin-3-yl)oxy)-2,7-naphthyridin-3-yl)amino)-7,7,8-trimethyl-7,8-dihydro-5H-pyrano[4,3-b]pyridin-5-one or (R)-2-((5-((S)-1-aminopropyl)-8-((1-((1S,2S)-2-fluorocyclopropane-1-carbonyl)azetidin-3-yl)oxy)-2,7-naphthyridin-3-yl)amino)-7,7,8-trimethyl-7,8-dihydro-5H-pyrano[4,3-b]pyridin-5-one] | 0.63 | 38.6 | –
2 | CC[C@@H](N)c1ccc(OC2CN(C(=O)C3CC3)C2)c2cnc(Nc3ccc4c(n3)[C@@H](C)C(C)(C)OC4=O)cc12 (single isomer, unassigned) [Compound 40, (R)-2-((5-((R)-1-Aminopropyl)-8-((1-(cyclopropanecarbonyl)azetidin-3-yl)oxy)isoquinolin-3-yl)amino)-7,7,8-trimethyl-7,8-dihydro-5H-pyrano[4,3-b]pyridin-5-one or (R)-2-((5-((S)-1-aminopropyl)-8-((1-(cyclopropanecarbonyl)azetidin-3-yl)oxy)isoquinolin-3-yl)amino)-7,7,8-trimethyl-7,8-dihydro-5H-pyrano[4,3-b]pyridin-5-one] | 0.19 | 160 | –
3 | C[C@@H]1c2nc(Nc3cc4c(C(C)(C)N)cnc(OC5CC(C)(C(=O)N(C)C)C5)c4cn3)ccc2C(=O)OC1(C)C (single isomer, unassigned) [Compound 81] | 0.16 | 71.2 | –
4 | CC[C@@H](N)c1ccc(OC2CN(C(=O)[C@@H]3C[C@@H]3F)C2)c2cnc(Nc3ccc4c(n3)[C@@H](C)C(C)(C)OC4=O)cc12 (single isomer, unassigned) [Compound 83, (R)-2-((5-((R)-1-Aminopropyl)-8-((1-((1S,2S)-2-fluorocyclopropane-1-carbonyl)azetidin-3-yl)oxy)isoquinolin-3-yl)amino)-7,7,8-trimethyl-7,8-dihydro-5H-pyrano[4,3-b]pyridin-5-one or (R)-2-((5-((S)-1-aminopropyl)-8-((1-((1S,2S)-2-fluorocyclopropane-1-carbonyl)azetidin-3-yl)oxy)isoquinolin-3-yl)amino)-7,7,8-trimethyl-7,8-dihydro-5H-pyrano[4,3-b]pyridin-5-one] | 0.11 | – | 23.8
5 | COCC(C)(N)c1cnc(OC2CN(C(=O)C3CC3F)C2)c2cnc(Nc3ccc4c(n3)C(C)C(C)OC4=O)cc12 (single isomer, unassigned) [Compound 96] | 0.09 | – | 10.3
6 | COCC(C)(N)c1cnc(OC2CN(C(=O)C3CC3F)C2)c2cnc(Nc3ccc4c(n3)C(C)C(C)OC4=O)cc12 (single isomer, unassigned) [Compound 97] | 0.36 | – | 50.1
7 | CCC[C@@](C)(N)c1ncc(OC2CN(C(C)=O)C2)c2cnc(Nc3ccc4c(n3)CC(C)(C)OC4=O)cc12 (single isomer, unassigned) [Compound 112] | 0.24 | 10.2 | –
8 | CCCC(C)(N)c1cnc(OC2CN(C(C)=O)C2)c2cnc(Nc3ccc4c(n3)[C@@H](C)[C@H](C)OC4=O)cc12 (single isomer, unassigned) [Compound 113] | 0.11 | 7.4 | –
9 | CCCC(C)(N)c1cnc(OC2CN(C(C)=O)C2)c2cnc(Nc3ccc4c(n3)[C@@H](C)C(C)(C)OC4=O)cc12 (single isomer, unassigned) [Compound 115] | 0.1 | 5.4 | –
10 | CC[C@H](N)c1cnc(O[C@H]2C[C@@H](C(=O)N3CC(OC)C3)C2)c2cnc(Nc3ccc4c(n3)[C@@H](C)C(C)(C)OC4=O)cc12 (single isomer, unassigned) [Compound 127] | 0.09 | 74.2 | –
11 | CC[C@@H](N)c1ccc(OC2CN(C(C)=O)C2)c2cnc(Nc3ccc4c(n3)[C@@H](C)C(C)(C)OC4=O)cc12 (stereo in doubt) [Compound 20] | 0.26 | 99.3 | –
12 | CC[C@@H](N)c1cnc(OC2CN(C(=O)C3CC3)C2)c2cnc(Nc3ccc4c(n3)[C@@H](C)C(C)(C)OC4=O)cc12 (stereo in doubt) [Compound 53] | 0.54 | 57.4 | –
13 | CC(=O)N1CC(Oc2ncc(C(C)(C)N)c3cc(Nc4ccc5c(n4)[C@@H](C)[C@H](C)OC5=O)ncc23)C1 [Compound 1, (7S,8R)-2-((8-((1-acetylazetidin-3-yl)oxy)-5-(2-aminopropan-2-yl)-2,7-naphthyridin-3-yl)amino)-7,8-dimethyl-7,8-dihydro-5H-pyrano[4,3-b]pyridin-5-one] | 0.18 | 34.7 | –
14 | CC(=O)N1C[C@@H](Oc2ncc(C(C)(C)N)c3cc(Nc4ccc5c(n4)[C@@H](C)[C@H](C)OC5=O)ncc23)[C@@H]1C [Compound 3] | 0.33 | 33.5 | –
15 | C[C@@H]1OC(=O)c2ccc(Nc3cc4c(C(C)(C)N)cnc(O[C@H]5C[C@@H](C(=O)N6CC(F)C6)C5)c4cn3)nc2[C@H]1C [Compound 84] | 0.24 | – | –
16 | COC[C@@](C)(N)c1cnc(O[C@H]2CN(C(=O)C3CC3)[C@@H]2C)c2cnc(Nc3ccc4c(n3)[C@@H](C)[C@H](C)OC4=O)cc12 [Compound 89] | 0.35 | – | –
17 | C[C@@H]1c2nc(Nc3cc4c(C(C)(C)N)cnc(OC5CN(C(=O)[C@@H]6CCCO6)C5)c4cn3)ccc2C(=O)OC1(C)C [Compound 90] | 0.18 | – | –
18 | COC[C@@](C)(N)c1cnc(O[C@@H]2CN(C(=O)C3CC3)[C@H]2C)c2cnc(Nc3ccc4c(n3)[C@@H](C)[C@H](C)OC4=O)cc12 [Compound 91] | 0.31 | – | –
19 | COC1(C(=O)N2CC(Oc3ncc(C(C)(C)N)c4cc(Nc5ccc6c(n5)[C@@H](C)C(C)(C)OC6=O)ncc34)C2)CC1 [Compound 93] | 0.17 | – | –
20 | C[C@@H]1c2nc(Nc3cc4c(C(C)(C)N)cnc(O[C@H]5C[C@@H](C(=O)N6CC(F)C6)C5)c4cn3)ccc2C(=O)OC1(C)C [Compound 94] | 0.14 | – | –
21 | C[C@@H]1OC(=O)c2ccc(Nc3cc4c(C(C)(C)N)cnc(O[C@H]5C[C@@H](C(=O)N6CC(F)(F)C6)C5)c4cn3)nc2[C@H]1C [Compound 98] | 0.19 | – | –
22 | C[C@@H]1c2nc(Nc3cc4c(C(C)(C)N)cnc(OC5CN(C(=O)C6(C(F)(F)F)CC6)C5)c4cn3)ccc2C(=O)OC1(C)C [Compound 103] | 0.24 | – | –
23 | CC(=O)N1CC(Oc2ncc(C(C)(C)N)c3cc(Nc4ccc5c(n4)CCOC5=O)ncc23)C1 [Compound 108] | 2.86 | – | –
24 | CC(=O)N1CC(Oc2ncc(C(C)(C)N)c3cc(Nc4ccc5c(n4)C(C)(C)OC5=O)ncc23)C1 [Compound 109] | 4 | – | –
25 | CC(=O)N1CC(Oc2ncc(C(C)(C)N)c3cc(Nc4ccc5c(n4)C(C)(C)COC5=O)ncc23)C1 [Compound 110] | 0.62 | – | –
26 | C[C@@H]1c2nc(Nc3cc4c(C(C)(C)N)ccc(OCCOC(=O)N(C)C)c4cn3)ccc2C(=O)OC1(C)C [Compound 114] | 0.07 | – | –
27 | CC(=O)N1CCC[C@@H]1COc1ncc(C(C)(C)N)c2cc(Nc3ccc4c(n3)[C@@H](C)C(C)(C)OC4=O)ncc12 [Compound 116] | 1.13 | – | –
28 | CC(=O)N1CCC[C@H]1COc1ncc(C(C)(C)N)c2cc(Nc3ccc4c(n3)[C@@H](C)C(C)(C)OC4=O)ncc12 [Compound 117] | 2.02 | – | –
29 | COC[C@@](C)(N)c1cnc(O[C@H]2C[C@H](C(=O)N(C)C)C2)c2cnc(Nc3ccc4c(n3)[C@@H](C)[C@H](C)OC4=O)cc12 [Compound 124] | 0.26 | – | –
